Laboratory results published in the kinase profiling compilation of Christmann-Franck et al. (2016).

Assays:
Experiment in all cases: KINOMEscan competition binding
Details in all cases: compound 10.0 µM
AKT3 (human) = AKT3 (human) (UniProt Q9Y243)
ANKK1 (human) = ANKK1 (human) (UniProt Q8NFD2)
CAMK2A (human) = CAMK2A (human) (UniProt Q9UQM7)
CDK13 (human) = CDK13 (human) (UniProt Q14004)
CDK14 (human) = CDK14 (human) (UniProt O94921)
CDK2 (human) = CDK2 (human) (UniProt P24941)
CDK7 (human) = CDK7 (human) (UniProt P50613)
CDKL1 (human) = CDKL1 (human) (UniProt Q00532)
CLK3 (human) = CLK3 (human) (UniProt P49761)
DAPK1 (human) = DAPK1 (human) (UniProt P53355)
DAPK2 (human) = DAPK2 (human) (UniProt Q9UIK4)
EIF2AK1 (human) = EIF2AK1 (human) (UniProt Q9BQI3)
EPHA6 (human) = EPHA6 (human) (UniProt Q9UF33)
HIPK2 (human) = HIPK2 (human) (UniProt Q9H2X6)
ICK (human) = ICK (human) (UniProt Q9UPZ9)
IGF1R (human) = IGF1R (human) (UniProt P08069)
IRAK1 (human) = IRAK1 (human) (UniProt P51617)
LATS2 (human) = LATS2 (human) (UniProt Q9NRM7)
LRRK2 (human) = LRRK2 (human) (UniProt Q5S007)
MAP2K6 (human) = MAP2K6 (human) (UniProt P52564)
MAP3K5 (human) = MAP3K5 (human) (UniProt Q99683)
MAP4K1 (human) = MAP4K1 (human) (UniProt Q92918)
MAPK12 (human) = MAPK12 (human) (UniProt P53778)
MAPK15 (human) = MAPK15 (human) (UniProt Q8TD08)
NUAK2 (human) = NUAK2 (human) (UniProt Q9H093)
PDPK1 (human) = PDPK1 (human) (UniProt O15530)
PIK3C2G (human) = PIK3C2G (human) (UniProt O75747)
PRKD2 (human) = PRKD2 (human) (UniProt Q9BZL6)
PRKG1 (human) = PRKG1 (human) (UniProt Q13976)
RIPK4 (human) = RIPK4 (human) (UniProt P57078)
RPS6KA1 KD2 (human) = RPS6KA1 KD2 (human) (UniProt Q15418)
RPS6KA4 KD1 (human) = RPS6KA4 KD1 (human) (UniProt O75676)
RPS6KB1 (human) = RPS6KB1 (human) (UniProt P23443)
STK17B (human) = STK17B (human) (UniProt O94768)
STK35 (human) = STK35 (human) (UniProt Q8TDR2)
TGFBR1 (human) = TGFBR1 (human) (UniProt P36897)
TGFBR2 (human) = TGFBR2 (human) (UniProt P37173)
TNK2 (human) = TNK2 (human) (UniProt Q07912)
[1] = molecular target: TYK2 JH2 pseudokinase (human) (UniProt P29597)
NTRK2 (human) = NTRK2 (human) (UniProt Q16620)

Sequence of PDPK1 (human) (O15530 whole entry, looked up): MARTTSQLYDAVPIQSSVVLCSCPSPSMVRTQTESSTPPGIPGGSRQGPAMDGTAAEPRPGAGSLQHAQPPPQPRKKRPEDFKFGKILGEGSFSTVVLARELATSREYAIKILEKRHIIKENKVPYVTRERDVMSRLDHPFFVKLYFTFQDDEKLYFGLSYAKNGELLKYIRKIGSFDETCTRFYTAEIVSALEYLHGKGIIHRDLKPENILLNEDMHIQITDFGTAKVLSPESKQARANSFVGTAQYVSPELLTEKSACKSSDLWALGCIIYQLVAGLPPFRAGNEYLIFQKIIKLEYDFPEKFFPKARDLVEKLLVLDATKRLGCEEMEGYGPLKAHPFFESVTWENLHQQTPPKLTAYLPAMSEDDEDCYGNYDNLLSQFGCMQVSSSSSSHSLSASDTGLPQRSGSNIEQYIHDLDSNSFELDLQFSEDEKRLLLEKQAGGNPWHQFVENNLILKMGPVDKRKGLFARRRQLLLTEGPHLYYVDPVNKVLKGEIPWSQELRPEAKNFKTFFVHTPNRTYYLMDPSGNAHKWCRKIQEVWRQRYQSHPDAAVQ
Sequence of STK17B (human) (O94768 whole entry, looked up): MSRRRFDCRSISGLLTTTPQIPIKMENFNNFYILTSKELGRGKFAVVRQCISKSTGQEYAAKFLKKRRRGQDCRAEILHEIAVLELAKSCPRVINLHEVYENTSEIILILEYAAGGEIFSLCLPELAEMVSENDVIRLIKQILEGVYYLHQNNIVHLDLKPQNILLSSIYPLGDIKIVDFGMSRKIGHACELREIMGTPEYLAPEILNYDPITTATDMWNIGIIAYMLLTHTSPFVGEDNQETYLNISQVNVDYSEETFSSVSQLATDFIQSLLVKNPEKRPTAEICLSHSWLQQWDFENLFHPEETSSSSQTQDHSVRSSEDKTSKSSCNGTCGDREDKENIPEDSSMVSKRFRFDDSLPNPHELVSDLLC
Sequence of MAPK12 (human) (P53778 whole entry, looked up): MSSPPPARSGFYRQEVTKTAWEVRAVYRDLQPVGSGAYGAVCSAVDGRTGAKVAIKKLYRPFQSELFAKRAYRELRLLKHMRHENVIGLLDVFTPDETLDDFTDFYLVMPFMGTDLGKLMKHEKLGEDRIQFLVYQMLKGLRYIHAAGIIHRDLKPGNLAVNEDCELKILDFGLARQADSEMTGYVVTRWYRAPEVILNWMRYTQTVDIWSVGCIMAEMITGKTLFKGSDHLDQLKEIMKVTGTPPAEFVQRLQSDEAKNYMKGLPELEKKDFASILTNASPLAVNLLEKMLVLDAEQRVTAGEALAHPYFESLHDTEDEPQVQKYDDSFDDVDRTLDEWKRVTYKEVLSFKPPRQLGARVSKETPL
Sequence of EIF2AK1 (human) (Q9BQI3 whole entry, looked up): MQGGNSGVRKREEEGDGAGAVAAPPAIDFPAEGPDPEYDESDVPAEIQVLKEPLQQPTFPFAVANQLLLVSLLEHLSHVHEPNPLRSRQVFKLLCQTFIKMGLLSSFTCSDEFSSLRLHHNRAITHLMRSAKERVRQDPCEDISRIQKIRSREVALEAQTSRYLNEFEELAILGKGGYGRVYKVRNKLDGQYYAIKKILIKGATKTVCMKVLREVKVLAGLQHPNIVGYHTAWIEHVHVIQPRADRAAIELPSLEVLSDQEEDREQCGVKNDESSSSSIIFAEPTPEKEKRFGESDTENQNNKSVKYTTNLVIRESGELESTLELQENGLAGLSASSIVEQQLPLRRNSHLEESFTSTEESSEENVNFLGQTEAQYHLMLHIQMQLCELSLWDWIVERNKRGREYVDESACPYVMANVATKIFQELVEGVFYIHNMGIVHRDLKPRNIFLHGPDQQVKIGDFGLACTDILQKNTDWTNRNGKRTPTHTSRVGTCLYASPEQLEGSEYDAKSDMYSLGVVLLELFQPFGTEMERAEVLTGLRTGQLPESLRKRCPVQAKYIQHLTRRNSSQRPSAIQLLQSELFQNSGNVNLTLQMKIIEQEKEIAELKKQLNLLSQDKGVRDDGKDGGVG
Sequence of CDK7 (human) (P50613 whole entry, looked up): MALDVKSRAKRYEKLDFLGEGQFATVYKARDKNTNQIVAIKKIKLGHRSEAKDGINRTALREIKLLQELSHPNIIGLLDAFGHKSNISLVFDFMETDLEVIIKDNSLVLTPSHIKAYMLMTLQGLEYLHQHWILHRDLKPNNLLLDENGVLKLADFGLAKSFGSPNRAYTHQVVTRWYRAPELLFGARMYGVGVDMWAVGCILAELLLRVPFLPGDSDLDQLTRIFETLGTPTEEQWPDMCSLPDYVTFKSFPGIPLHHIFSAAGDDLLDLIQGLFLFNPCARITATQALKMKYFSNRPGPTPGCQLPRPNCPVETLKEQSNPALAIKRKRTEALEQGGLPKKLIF
Sequence of TGFBR2 (human) (P37173 whole entry, looked up): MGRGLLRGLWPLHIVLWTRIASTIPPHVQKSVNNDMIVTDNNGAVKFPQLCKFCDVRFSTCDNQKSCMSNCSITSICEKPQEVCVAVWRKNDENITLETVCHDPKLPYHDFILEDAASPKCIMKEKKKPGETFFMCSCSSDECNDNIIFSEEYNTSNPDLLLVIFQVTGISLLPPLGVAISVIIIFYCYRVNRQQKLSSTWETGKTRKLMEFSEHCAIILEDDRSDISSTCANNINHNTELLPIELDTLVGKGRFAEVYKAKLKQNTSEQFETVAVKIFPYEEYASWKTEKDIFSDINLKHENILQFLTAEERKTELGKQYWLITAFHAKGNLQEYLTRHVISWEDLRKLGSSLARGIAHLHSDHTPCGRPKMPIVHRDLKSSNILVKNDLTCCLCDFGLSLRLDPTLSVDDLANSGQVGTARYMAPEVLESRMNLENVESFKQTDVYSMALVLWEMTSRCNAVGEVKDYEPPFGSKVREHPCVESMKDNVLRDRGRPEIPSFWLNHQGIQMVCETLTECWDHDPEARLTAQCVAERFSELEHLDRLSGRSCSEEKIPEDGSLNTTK
Sequence of RPS6KB1 (human) (P23443 whole entry, looked up): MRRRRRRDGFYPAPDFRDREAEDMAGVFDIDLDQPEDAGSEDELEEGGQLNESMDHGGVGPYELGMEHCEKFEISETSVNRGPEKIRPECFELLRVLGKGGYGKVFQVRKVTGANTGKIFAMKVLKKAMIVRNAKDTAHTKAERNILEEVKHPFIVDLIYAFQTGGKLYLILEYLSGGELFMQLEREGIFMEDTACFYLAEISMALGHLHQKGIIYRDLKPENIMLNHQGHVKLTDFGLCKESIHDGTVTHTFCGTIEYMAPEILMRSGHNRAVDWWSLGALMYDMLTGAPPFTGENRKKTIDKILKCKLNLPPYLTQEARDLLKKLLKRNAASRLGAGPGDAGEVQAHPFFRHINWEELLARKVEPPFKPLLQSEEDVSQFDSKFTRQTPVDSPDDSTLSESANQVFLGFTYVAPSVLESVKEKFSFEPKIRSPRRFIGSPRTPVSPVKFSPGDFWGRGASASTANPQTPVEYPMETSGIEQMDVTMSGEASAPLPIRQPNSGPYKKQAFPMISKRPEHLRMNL
Sequence of ANKK1 (human) (Q8NFD2 whole entry, looked up): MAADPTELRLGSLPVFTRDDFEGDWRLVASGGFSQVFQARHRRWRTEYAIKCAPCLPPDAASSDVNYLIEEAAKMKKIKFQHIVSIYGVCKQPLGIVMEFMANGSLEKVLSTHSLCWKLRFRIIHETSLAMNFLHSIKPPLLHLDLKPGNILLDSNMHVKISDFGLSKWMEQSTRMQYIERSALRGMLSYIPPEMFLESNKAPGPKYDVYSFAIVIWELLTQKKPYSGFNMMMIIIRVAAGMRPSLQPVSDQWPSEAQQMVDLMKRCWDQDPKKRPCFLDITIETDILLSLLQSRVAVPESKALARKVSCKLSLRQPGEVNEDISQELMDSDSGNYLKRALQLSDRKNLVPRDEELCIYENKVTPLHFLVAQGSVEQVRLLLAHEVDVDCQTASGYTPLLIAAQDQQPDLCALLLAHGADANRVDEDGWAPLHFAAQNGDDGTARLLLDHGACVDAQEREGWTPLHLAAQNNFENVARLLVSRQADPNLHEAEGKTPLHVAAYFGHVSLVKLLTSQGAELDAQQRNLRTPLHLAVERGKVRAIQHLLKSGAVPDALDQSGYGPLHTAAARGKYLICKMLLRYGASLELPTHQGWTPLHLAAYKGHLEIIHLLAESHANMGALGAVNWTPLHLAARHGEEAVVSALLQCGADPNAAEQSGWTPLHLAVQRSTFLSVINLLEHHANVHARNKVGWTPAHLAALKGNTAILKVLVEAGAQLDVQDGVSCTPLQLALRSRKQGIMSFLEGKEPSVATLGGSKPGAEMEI
Sequence of TGFBR1 (human) (P36897 whole entry, looked up): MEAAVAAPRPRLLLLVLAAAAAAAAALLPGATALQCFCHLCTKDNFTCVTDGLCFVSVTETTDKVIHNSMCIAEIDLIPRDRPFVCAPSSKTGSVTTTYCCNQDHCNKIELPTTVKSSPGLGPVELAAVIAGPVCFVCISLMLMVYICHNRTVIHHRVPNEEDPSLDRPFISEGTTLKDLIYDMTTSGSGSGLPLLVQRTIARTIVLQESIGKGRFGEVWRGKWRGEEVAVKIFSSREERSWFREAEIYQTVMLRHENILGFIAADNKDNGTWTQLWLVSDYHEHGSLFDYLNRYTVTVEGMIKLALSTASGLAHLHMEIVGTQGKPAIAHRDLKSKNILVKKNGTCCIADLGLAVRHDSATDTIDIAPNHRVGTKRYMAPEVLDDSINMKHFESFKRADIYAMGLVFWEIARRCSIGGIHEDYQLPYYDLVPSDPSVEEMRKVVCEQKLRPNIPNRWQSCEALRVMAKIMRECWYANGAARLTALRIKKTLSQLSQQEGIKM
Sequence of MAP2K6 (human) (P52564 whole entry, looked up): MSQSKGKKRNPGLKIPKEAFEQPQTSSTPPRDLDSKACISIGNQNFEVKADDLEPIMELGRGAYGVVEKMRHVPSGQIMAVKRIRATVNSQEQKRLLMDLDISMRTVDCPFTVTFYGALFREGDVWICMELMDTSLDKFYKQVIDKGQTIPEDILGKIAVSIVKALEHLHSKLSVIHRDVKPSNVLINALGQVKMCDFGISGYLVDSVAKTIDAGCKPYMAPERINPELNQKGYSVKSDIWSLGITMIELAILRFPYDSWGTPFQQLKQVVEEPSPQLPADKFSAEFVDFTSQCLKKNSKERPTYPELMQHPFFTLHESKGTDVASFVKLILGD

## Cc1cc([C@@H](C)Nc2ccccc2C(=O)O)c2nc(N3CCOCC3)cc(=O)n2c1
AKT3 (human)
  kinase still bound, per cent of control: 100%
ANKK1 (human)
  kinase still bound, per cent of control: 100%
CAMK2A (human)
  kinase still bound, per cent of control: 75%
CDK13 (human)
  kinase still bound, per cent of control: 88%
CDK14 (human)
  kinase still bound, per cent of control: 100%
CDK2 (human)
  kinase still bound, per cent of control: 93%
CDK7 (human)
  kinase still bound, per cent of control: 97%
CDKL1 (human)
  kinase still bound, per cent of control: 100%
CLK3 (human)
  kinase still bound, per cent of control: 100%
DAPK1 (human)
  kinase still bound, per cent of control: 95%
DAPK2 (human)
  kinase still bound, per cent of control: 92%
EIF2AK1 (human)
  kinase still bound, per cent of control: 97%
EPHA6 (human)
  kinase still bound, per cent of control: 100%
HIPK2 (human)
  kinase still bound, per cent of control: 79%
ICK (human)
  kinase still bound, per cent of control: 100%
IGF1R (human)
  kinase still bound, per cent of control: 100%
IRAK1 (human)
  kinase still bound, per cent of control: 90%
LATS2 (human)
  kinase still bound, per cent of control: 63%
LRRK2 (human)
  kinase still bound, per cent of control: 100%
MAP2K6 (human)
  kinase still bound, per cent of control: 92%
MAP3K5 (human)
  kinase still bound, per cent of control: 100%
MAP4K1 (human)
  kinase still bound, per cent of control: 100%
MAPK12 (human)
  kinase still bound, per cent of control: 94%
MAPK15 (human)
  kinase still bound, per cent of control: 100%
NUAK2 (human)
  kinase still bound, per cent of control: 84%
PDPK1 (human)
  kinase still bound, per cent of control: 100%
PIK3C2G (human)
  kinase still bound, per cent of control: 7%
PRKD2 (human)
  kinase still bound, per cent of control: 100%
PRKG1 (human)
  kinase still bound, per cent of control: 100%
RIPK4 (human)
  kinase still bound, per cent of control: 99%
RPS6KA1 KD2 (human)
  kinase still bound, per cent of control: 84%
RPS6KA4 KD1 (human)
  kinase still bound, per cent of control: 94%
RPS6KB1 (human)
  kinase still bound, per cent of control: 72%
STK17B (human)
  kinase still bound, per cent of control: 100%
STK35 (human)
  kinase still bound, per cent of control: 95%
TGFBR1 (human)
  kinase still bound, per cent of control: 100%
TGFBR2 (human)
  kinase still bound, per cent of control: 95%
TNK2 (human)
  kinase still bound, per cent of control: 100%
[1]
  kinase still bound, per cent of control: 100%

## O=C(O)c1ccc(Nc2ncc3c(n2)-c2ccc(Cl)cc2C(c2c(F)cccc2F)=NC3)cc1
AKT3 (human)
  kinase still bound, per cent of control: 100%
ANKK1 (human)
  kinase still bound, per cent of control: 100%
CAMK2A (human)
  kinase still bound, per cent of control: 69%
CDK13 (human)
  kinase still bound, per cent of control: 100%
CDK14 (human)
  kinase still bound, per cent of control: 100%
CDK2 (human)
  kinase still bound, per cent of control: 84%
CDK7 (human)
  kinase still bound, per cent of control: 77%
CDKL1 (human)
  kinase still bound, per cent of control: 100%
CLK3 (human)
  kinase still bound, per cent of control: 14%
DAPK1 (human)
  kinase still bound, per cent of control: 48%
DAPK2 (human)
  kinase still bound, per cent of control: 41%
EIF2AK1 (human)
  kinase still bound, per cent of control: 89%
EPHA6 (human)
  kinase still bound, per cent of control: 14%
HIPK2 (human)
  kinase still bound, per cent of control: 100%
ICK (human)
  kinase still bound, per cent of control: 86%
IGF1R (human)
  kinase still bound, per cent of control: 73%
IRAK1 (human)
  kinase still bound, per cent of control: 93%
LATS2 (human)
  kinase still bound, per cent of control: 72%
LRRK2 (human)
  kinase still bound, per cent of control: 82%
MAP2K6 (human)
  kinase still bound, per cent of control: 72%
MAP3K5 (human)
  kinase still bound, per cent of control: 100%
MAP4K1 (human)
  kinase still bound, per cent of control: 71%
MAPK12 (human)
  kinase still bound, per cent of control: 97%
MAPK15 (human)
  kinase still bound, per cent of control: 90%
NTRK2 (human)
  kinase still bound, per cent of control: 30%
NUAK2 (human)
  kinase still bound, per cent of control: 85%
PDPK1 (human)
  kinase still bound, per cent of control: 35%
PIK3C2G (human)
  kinase still bound, per cent of control: 16%
PRKD2 (human)
  kinase still bound, per cent of control: 92%
PRKG1 (human)
  kinase still bound, per cent of control: 100%
RIPK4 (human)
  kinase still bound, per cent of control: 100%
RPS6KA4 KD1 (human)
  kinase still bound, per cent of control: 100%
RPS6KB1 (human)
  kinase still bound, per cent of control: 54%
STK17B (human)
  kinase still bound, per cent of control: 8.6%
TGFBR1 (human)
  kinase still bound, per cent of control: 98%
TGFBR2 (human)
  kinase still bound, per cent of control: 58%
TNK2 (human)
  kinase still bound, per cent of control: 46%
[1]
  kinase still bound, per cent of control: 100%

## C[C@@H](Oc1cc(-n2cnc3ccc(CN4CCN(C)CC4)cc32)sc1C(N)=O)c1ccccc1C(F)(F)F
AKT3 (human)
  kinase still bound, per cent of control: 100%
ANKK1 (human)
  kinase still bound, per cent of control: 26%
CAMK2A (human)
  kinase still bound, per cent of control: 4.9%
CDK13 (human)
  kinase still bound, per cent of control: 26%
CDK14 (human)
  kinase still bound, per cent of control: 94%
CDK2 (human)
  kinase still bound, per cent of control: 85%
CDK7 (human)
  kinase still bound, per cent of control: 33%
CDKL1 (human)
  kinase still bound, per cent of control: 75%
CLK3 (human)
  kinase still bound, per cent of control: 91%
DAPK2 (human)
  kinase still bound, per cent of control: 15%
EIF2AK1 (human)
  kinase still bound, per cent of control: 94%
EPHA6 (human)
  kinase still bound, per cent of control: 92%
HIPK2 (human)
  kinase still bound, per cent of control: 36%
ICK (human)
  kinase still bound, per cent of control: 85%
IGF1R (human)
  kinase still bound, per cent of control: 100%
IRAK1 (human)
  kinase still bound, per cent of control: 23%
LATS2 (human)
  kinase still bound, per cent of control: 42%
LRRK2 (human)
  kinase still bound, per cent of control: 60%
MAP2K6 (human)
  kinase still bound, per cent of control: 98%
MAP3K5 (human)
  kinase still bound, per cent of control: 100%
MAP4K1 (human)
  kinase still bound, per cent of control: 83%
MAPK12 (human)
  kinase still bound, per cent of control: 95%
MAPK15 (human)
  kinase still bound, per cent of control: 52%
NTRK2 (human)
  kinase still bound, per cent of control: 68%
NUAK2 (human)
  kinase still bound, per cent of control: 1.2%
PDPK1 (human)
  kinase still bound, per cent of control: 100%
PIK3C2G (human)
  kinase still bound, per cent of control: 40%
PRKD2 (human)
  kinase still bound, per cent of control: 27%
PRKG1 (human)
  kinase still bound, per cent of control: 100%
RIPK4 (human)
  kinase still bound, per cent of control: 52%
RPS6KA1 KD2 (human)
  kinase still bound, per cent of control: 71%
RPS6KA4 KD1 (human)
  kinase still bound, per cent of control: 68%
RPS6KB1 (human)
  kinase still bound, per cent of control: 52%
STK17B (human)
  kinase still bound, per cent of control: 100%
STK35 (human)
  kinase still bound, per cent of control: 76%
TGFBR1 (human)
  kinase still bound, per cent of control: 99%
TGFBR2 (human)
  kinase still bound, per cent of control: 100%
TNK2 (human)
  kinase still bound, per cent of control: 100%
[1]
  kinase still bound, per cent of control: 100%
